Experimental data published in US20110092582A1, “New Terpenes And Macrocycles” (MERCK PATENT GESELLSCHAFT, priority 2008, published 2011).

Biological target: T1, human TGR5 (Homo sapiens, UniProt Q8TDU6)
T1 construct: expressed in transfected cells; host or cells: BHK cells
T1 sequence (Q8TDU6 1-330): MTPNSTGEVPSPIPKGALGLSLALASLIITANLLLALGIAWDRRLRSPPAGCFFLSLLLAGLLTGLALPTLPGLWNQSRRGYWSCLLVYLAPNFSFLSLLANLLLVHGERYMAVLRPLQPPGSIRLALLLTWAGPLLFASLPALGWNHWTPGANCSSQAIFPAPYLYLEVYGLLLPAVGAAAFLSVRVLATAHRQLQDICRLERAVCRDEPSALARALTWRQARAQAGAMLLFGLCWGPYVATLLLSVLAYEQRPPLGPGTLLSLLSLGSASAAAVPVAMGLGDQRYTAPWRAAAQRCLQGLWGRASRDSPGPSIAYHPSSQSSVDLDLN
Experiment: cAMP production in BHK cells expressing the human TGR5 (CisBio cAMP kit), normalized to LCA = 100%
Type: cell-based
Conditions: BHK cells expressing human TGR5, 30 minutes incubation
Method: The activity of the natural products, with respect to their TGR5 activating capacities, was analyzed as follows:
BHK cells, expressing the human TGR5, were seeded into 384-well plates and grown overnight. The next day, natural test compounds (and LCA as positive control) were incubated on the cells for 30 minutes. As TGR5 couples to […] proteins, the increase of cellular cAMP production, as a measure for TGR5 activity, was analyzed by using a commercially available cAMP kit (CisBio international). The cAMP production was measured according to the kit manufacturer's protocol. Data were normalized by setting the cAMP production induced by LCA to 100% activity. EC50 values were determined by using the GraphPad PrismSoftware (Graph. Pad Software Inc.).

Q: For `C=CC1C(CO)=CCC2C1CCC1C(C)(C)C(=O)CCC21C` (centres unmarked) [A1, 17-hydroxy-12,15-cleistanthadiene-3-one], which EC50 is on record?
A: 3000 nM

Q: Which EC50 (unit inferred) does the source give for `CCC(C)C1OC(=O)C(Cc2ccccc2)NC(=O)C(C)C/C(C)=C/C(C)C(O)/C(C)=C/C1C` (centres unmarked) [A4, (8E,12E)-3-benzyl-15-sec-butyl-11-hydroxy-6,8,10,12,14-pentamethyl-1-oxa-4-azacyclopentadeca-8,12-diene-2,5-dione] here?
A: 400 nM
